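Step 1: Grow cells in 96-well plates. Step 2: Expose to compound for 48 hours at 5 concentrations. Step 3: Interpolate endpoints linearly; if unreached, use highest concentration. TGI marks complete inhibition of growth.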
Legend:
Experiment in all cases: NCI-60 cell line screen, 48 h
OVCAR-5 ovarian = test system: OVCAR-5 ovarian
T-47D breast = test system: T-47D breast
SNB-75 CNS = test system: SNB-75 CNS
NCI-H23 lung = test system: NCI-H23 lung
MDA-N = test system: MDA-N
HCT-15 colon = test system: HCT-15 colon
OVCAR-8 ovarian = test system: OVCAR-8 ovarian
EKVX NSCLC = test system: EKVX NSCLC
ACHN renal = test system: ACHN renal
A549 NSCLC = test system: A549 NSCLC
U251 CNS = test system: U251 CNS
SN12C renal = test system: SN12C renal
SK-MEL-5 melanoma = test system: SK-MEL-5 melanoma
SF-539 CNS = test system: SF-539 CNS
SK-MEL-28 melanoma = test system: SK-MEL-28 melanoma
CCRF-CEM leukemia = test system: CCRF-CEM leukemia
DU-145 prostate = test system: DU-145 prostate
SNB-19 CNS = test system: SNB-19 CNS
MALME-3M melanoma = test system: MALME-3M melanoma
KM12 colon = test system: KM12 colon
HOP-92 NSCLC = test system: HOP-92 NSCLC
OVCAR-3 ovarian = test system: OVCAR-3 ovarian
HL-60(TB) leukemia = test system: HL-60(TB) leukemia
LOX IMVI melanoma = test system: LOX IMVI melanoma
MCF7 breast = test system: MCF7 breast
RPMI-8226 leukemia = test system: RPMI-8226 leukemia
UO-31 renal = test system: UO-31 renal
COLO 205 colon = test system: COLO 205 colon
CAKI-1 renal = test system: CAKI-1 renal
IGROV1 ovarian = test system: IGROV1 ovarian
UACC-257 melanoma = test system: UACC-257 melanoma
HCC-2998 colon = test system: HCC-2998 colon
NCI-H460 lung = test system: NCI-H460 lung
HCT-116 colon = test system: HCT-116 colon
NCI-H522 lung = test system: NCI-H522 lung
MDA-MB-231 breast = test system: MDA-MB-231 breast
SK-OV-3 ovarian = test system: SK-OV-3 ovarian
UACC-62 melanoma = test system: UACC-62 melanoma
SW-620 colon = test system: SW-620 colon
SK-MEL-2 melanoma = test system: SK-MEL-2 melanoma
M14 melanoma = test system: M14 melanoma
MOLT-4 leukemia = test system: MOLT-4 leukemia
SF-268 CNS = test system: SF-268 CNS
PC-3 prostate = test system: PC-3 prostate
SF-295 CNS = test system: SF-295 CNS
BT-549 breast = test system: BT-549 breast
OVCAR-4 ovarian = test system: OVCAR-4 ovarian
A498 renal = test system: A498 renal
NCI/ADR-RES ovarian = test system: NCI/ADR-RES ovarian
TK-10 renal = test system: TK-10 renal
786-0 renal = test system: 786-0 renal
MDA-MB-435 = test system: MDA-MB-435
HS 578T breast = test system: HS 578T breast
NCI-H226 lung = test system: NCI-H226 lung
HT29 colon = test system: HT29 colon
K-562 leukemia = test system: K-562 leukemia

Measured: TGI

COC(=O)C1(C)C=CC(=O)C2(C)C1C(O)C1OC3CC(c4ccoc4)C(C)=C3C1(C)C2CC(=O)O (stereo not drawn)
not listed: NCI-H226 lung | HT29 colon | K-562 leukemia
> 100 µM: all other assays above

CC(=O)Nc1c(C)cc2c(nc3n2CCC3O)c1[N+](=O)[O-] (stereo not drawn)
not listed: TK-10 renal
> 100 µM: all other assays above

Source: PubChem BioAssay (NCI)
